Assay results as given in US20220387602A1, “BIFUNCTIONAL DEGRADERS AND THEIR METHODS OF USE” (NOVARTIS AG, priority 2019, published 2022).

Target: T1, EPHA4 (Homo sapiens, UniProt P54764)
T1 construct: EGFP (after a Leu that replaces the STOP codon); expressed in transfected cells; host or cells: HEK293A (Invitrogen R70507), lentiviral transduction
Test: EPHA4-GFP protein abundance flow cytometry assay in HEK293A
Format: cell-based
Conditions: for EPHA4 Amax: % protein remaining at the concentration of maximum degradation; for DC50: HEK293A EPHA4-GFP sensor cells, 24 h
Description: Degradation of BTK, CSK, ABL2, EPHA4 and YES1 was measured in HEK293A cells (Invitrogen R70507) expressing either BTK-GFP and RFP, CSK-GFP and mCherry, GFP-ABL2 and mCherry, EPHA4-GFP and mCherry, or YES1-GFP and mCherry from a stably integrated bicistronic BTK-GFP-iresRFP, CSK-GFP-CHYSEL-mCherry, GFP-ABL2-CHYSEL-mCherry, EPHA4-GFP-CHYSEL-mCherry, or YES1-GFP-CHYSEL-mCherry construct, respectively. Reduction of the GFP signal measured by flow cytometry served as readout for BTK, CSK, ABL2, EPHA4 and YES1 degradation after degrader treatment.
293A BTK-GFP-Ires-RFP, CSK-GFP-CHYSEL-mCherry, GFP-ABL2-CHYSEL-mCherry, EPHA4-GFP-CHYSEL-mCherry, or YES1-GFP-CHYSEL-mCherry sensor cells were generated by lentiviral vector transduction using the pLenti6-BTK-GFP-Ires-RFP, pLenti6-mCherryCHYSEL-EGFP-ABL2, pLenti6-CSK-GFP-CHYSEL-mCherry, pLenti6-EPHA4-GFP-CHYSEL-mCherry or pLenti6-YES1-GFP-CHYSEL-mCherry sensor construct described before. Lentiviral particles were produced in HEK293FT cells (Invitrogen R70007) by co-transfection of 500 ng pLenti6-BTK-GFP-Ires-RFP or pLenti6-IKZF3-GFP-Ires-RFP, 500 ng delta8.71 and 200 ng pVSVG diluted in 100 μL OptiMEM serum free medium (Invitrogen #11058-021) that was mixed after 5 min preincubation with 3 μL of Lipofectamine2000 (Invitrogen #11668-019) in 97 μL OptiMEM serum free medium. The mix was incubated for another 20 min at RT and then added on 1 mL of a freshly prepared suspension of HEK293FT cells in a well of a 6-well plate (concentration 1.2×10^6 cells/mL). 1 day after transfection, the medium was replaced with 1.5 mL of complete growth medium (DMEM high Glucose+10% FCS+1% L-Glutamine+1% NEAA+1% NaPyr.). 48 h post transfection supernatant containing viral transducing particles was collected and frozen at −80° C.
2 days before transduction with viral particles 1×10^5 HEK293A cells (Invitrogen R70507) were seeded in 2 mL growth medium in a well of a 6-well plate. Infection was performed with 90 μL of collected supernatant containing viral transducing particles in 1 mL medium including 8 µg/mL polybrene. 24 h post infection, stably transfected cells were selected with blasticidin at a concentration of 8 μg/mL referred to as stable HEK293A sensor cells.
Stable HEK293A sensor cells were maintained in complete growth medium (DMEM high Glucose+10% FCS+1% L-Glutamine+1% NEAA+1% NaPyr.) with passaging performed twice per week. […] GFP and RFP are read in the channels called FITC and PE, respectively.
Concentration response curves plotting relative reduction of the GFP signal (measured by flow cytometry) versus 10 compound concentrations (starting concentration 10 μM, 3 fold dilution steps) of the compounds allowed generation of DC50 values.

T1 sequence (P54764 20-986, species assumed): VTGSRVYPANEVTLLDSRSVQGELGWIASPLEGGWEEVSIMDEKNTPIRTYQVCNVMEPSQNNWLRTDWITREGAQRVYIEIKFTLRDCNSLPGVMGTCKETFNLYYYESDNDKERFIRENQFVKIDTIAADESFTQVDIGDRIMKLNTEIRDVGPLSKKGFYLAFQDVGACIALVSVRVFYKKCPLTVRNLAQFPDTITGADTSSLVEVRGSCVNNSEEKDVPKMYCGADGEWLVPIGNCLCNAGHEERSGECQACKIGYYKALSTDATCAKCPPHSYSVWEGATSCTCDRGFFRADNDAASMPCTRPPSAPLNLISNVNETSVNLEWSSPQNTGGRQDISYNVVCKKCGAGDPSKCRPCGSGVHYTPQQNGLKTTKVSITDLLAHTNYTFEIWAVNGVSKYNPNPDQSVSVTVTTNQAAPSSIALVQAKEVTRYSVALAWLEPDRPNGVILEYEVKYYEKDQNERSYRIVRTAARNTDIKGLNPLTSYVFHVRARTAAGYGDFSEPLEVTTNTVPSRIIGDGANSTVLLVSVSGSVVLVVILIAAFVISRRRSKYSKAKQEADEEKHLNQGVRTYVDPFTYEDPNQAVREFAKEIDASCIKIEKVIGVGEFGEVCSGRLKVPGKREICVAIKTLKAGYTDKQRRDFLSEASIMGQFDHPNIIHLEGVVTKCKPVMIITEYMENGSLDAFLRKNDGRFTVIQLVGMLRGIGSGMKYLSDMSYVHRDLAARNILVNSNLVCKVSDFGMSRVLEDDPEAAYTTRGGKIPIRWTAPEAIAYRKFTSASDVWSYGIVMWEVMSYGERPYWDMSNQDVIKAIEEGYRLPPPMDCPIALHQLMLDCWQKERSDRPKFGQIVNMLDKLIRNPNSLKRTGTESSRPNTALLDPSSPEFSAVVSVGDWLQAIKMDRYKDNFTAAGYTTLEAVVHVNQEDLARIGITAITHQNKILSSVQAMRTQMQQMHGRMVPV

SMILES	EPHA4 Amax [%]	DC50 [nM]
COc1ccc(C(=O)N2CCC3(CCN(C(=O)CCCCCCCN4CCN(c5cc(Nc6ncc(C(=O)Nc7c(C)cccc7Cl)s6)nc(C)n5)CC4)CC3)CC2)cc1N1CCC(=O)NC1=O [compound 06, N-(2-chloro-6-methylphenyl)-2-((6-(4-(8-(9-(3-(2,4-dioxotetrahydropyrimidin-1(2H)-yl)-4-methoxybenzoyl)-3,9-diazaspiro[5.5]undecan-3-yl)-8-oxooctyl)piperazin-1-yl)-2-methylpyrimidin-4-yl)amino)thiazole-5-carboxamide]	9	4
COc1ccc(C(=O)N2CCC3(CCN(C(=O)CN4CCN(c5cc(Nc6ncc(C(=O)Nc7c(C)cccc7Cl)s6)nc(C)n5)CC4)CC3)CC2)cc1N1CCC(=O)NC1=O [compound 07, N-(2-chloro-6-methylphenyl)-2-((6-(4-(2-(9-(3-(2,4-dioxotetrahydropyrimidin-1(2H)-yl)-4-methoxybenzoyl)-3,9-diazaspiro[5.5]undecan-3-yl)-2-oxoethyl)piperazin-1-yl)-2-methylpyrimidin-4-yl)amino)thiazole-5-carboxamide]	9	83
